These results are taken from patent US20160039880A1 (priority 2012, published 2016).

Series [1] in a line: Water Solubility Assay (measured in pH 7.8 buffer).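 Further: precipitation onset detected as rise in absorbance at 650 nm across increasing concentrations, after shaking for 18 h, blank wells receiving DMSO only.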 The series is classed as physicochemical. The conditions noted are these: 25 °C.
Description: The aqueous solubility of a compound of Formula I in buffer (pH 7.8) was measured by recording the onset of precipitation of the compound as a function of increasing concentration. The onset of precipitation, if it occurred, was detected by an increase in absorbance at 650 nm.
Assay Buffer: 35 mM HEPES pH 7.8
Stock solutions of Control and Test Compounds: 10 mM in 100% DMSO
10 mM stock solutions of control and test compounds were prepared in 100% DMSO.
Assay buffer (247.5 μl) was placed into flat bottomed transparent 96-well plate. For blank samples DMSO (2.5 μl) was added. For test and control samples 2.5 μl of the appropriate DMSO dilution stocks were added to the appropriate well. All test and control compounds were performed in triplicate.
The plates were sealed with adhesive plate seal and shaken at 250 rpm at 25° C. for 18 h on a plate shaker.
After incubation the plate seals were taken off and any bubbles observed in wells removed. The plates were read on a SpectraMaxM5 with a 5 s pre-shake at 650 nm.
Data files were transferred to the appropriate worksheet and the solubility range of the compounds was calculated from the data.
Series [2] has as its target Human recombinant cyclophilin A (Cyp A) (Homo sapiens, UniProt P62937). The experiment in a line: Protease-free PPIase assay.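 Further: cis to trans isomerization of SUC-AAPF-pNA by 2 nM enzyme, read as absorbance at 330 nm over 300 s at 10 °C, catalytic rate corrected for uncatalyzed background.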
Where [3] appears, read: pH 7.8, aqueous buffer, kinetic from dmso stock.

In brackets after ≈: the same amount, converted by molar mass. Where two headings read alike, the source gives them in different places.

Sequence of Human recombinant cyclophilin A (Cyp A) (P62937 whole entry): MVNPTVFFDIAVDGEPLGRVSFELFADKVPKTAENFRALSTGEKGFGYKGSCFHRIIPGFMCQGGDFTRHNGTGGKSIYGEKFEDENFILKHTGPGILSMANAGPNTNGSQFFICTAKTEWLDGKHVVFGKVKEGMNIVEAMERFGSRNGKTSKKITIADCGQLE

For `CC[C@H]1NC(=O)[C@@H]([C@H](O)[C@H](C)CCN(C)CCOC)N(C)C(=O)[C@@H](C(C)C)N(C)C(=O)[C@@H](CC(C)C)N(C)C(=O)[C@@H](CC(C)C)N(C)C(=O)[C@H](C)NC(=O)[C@@H](C)NC(=O)[C@@H](CC(C)C)N(C)C(=O)[C@@H](C(C)C)NC(=O)[C@H](CC(C)C)N(C)C(=O)[C@@H](C)N(C)C1=O` [Compound AG], in series [1] (35 mM HEPES pH 7.8, 1% DMSO, 18 h, read-out: Water Solubility Assay, concentration at which the compound remains in solution), the solubility at 18 h is above 100 µM. In addition, the Ki in series [2] (read-out: Protease-free PPIase Assay Ki, cyclophilin A, 10 °C) is 0.018 µM.

As to `CC[C@H]1NC(=O)[C@@H]([C@H](O)[C@H](C)CCCCCN(CC)CC)N(C)C(=O)[C@@H](C(C)C)N(C)C(=O)[C@@H](CC(C)C)N(C)C(=O)[C@@H](CC(C)C)N(C)C(=O)[C@H](C)NC(=O)[C@@H](C)NC(=O)[C@@H](CC(C)C)N(C)C(=O)[C@@H](C(C)C)NC(=O)[C@H](CC(C)C)N(C)C(=O)[C@@H](C)N(C)C1=O` [Compound AH, [(6R,7R,8S)-7-Hydroxy-6-methyl-8-(methylamino)-1-N-diethylamino-nonanoic acid]^1[(R)-methyl-Sar]^3 cyclosporin A], the solubility at 18 h in series [1] (setting [3]) was above 100 µM. The Ki in series [2] worked out at 0.0047 µM.

`CC[C@H]1NC(=O)[C@@H]([C@H](O)[C@H](C)CCCCCNCCOC)N(C)C(=O)[C@@H](C(C)C)N(C)C(=O)[C@@H](CC(C)C)N(C)C(=O)[C@@H](CC(C)C)N(C)C(=O)[C@H](C)NC(=O)[C@@H](C)NC(=O)[C@@H](CC(C)C)N(C)C(=O)[C@@H](C(C)C)NC(=O)[C@H](CC(C)C)N(C)C(=O)[C@@H](C)N(C)C1=O` [Compound AI, [(6R,7R,8S)-7-Hydroxy-6-methyl-8-(methylamino)-1-N-(2-methoxy)ethylamino-nonanoic acid]^1[(R)-methyl-Sar]^3 cyclosporin A]: in series [1] (setting [3]), the solubility at 18 h is above 100 µM. In series [2], the inhibition constant Ki was 0.0033 µM.

In the case of `CS[C@@H]1C(=O)N(C)[C@@H](CC(C)C)C(=O)N[C@H](C(C)C)C(=O)N(C)[C@H](CC(C)C)C(=O)N[C@H](C)C(=O)N[C@@H](C)C(=O)N(C)[C@H](CC(C)C)C(=O)N(C)[C@H](CC(C)C)C(=O)N(C)[C@H](C(C)C)C(=O)N(C)[C@H]([C@H](O)[C@H](C)CCN2CCOCC2)C(=O)N[C@H](C(C)C)C(=O)N1C` [Compound AM, [(3R,4R,5S)-4-Hydroxy-3-methyl-5-(methylamino)-1-morpholino-hexanoic acid]^1[(S)-thio-methyl-Sar]^3 cyclosporin D], the solubility at 18 h in series [1] (setting [3]) lay within 25 to 50 µM (≈ 33 to 66.1 µg/mL). Also, the Ki in series [2] is 0.0019 µM.

As for `CC[C@H]1NC(=O)[C@@H]([C@H](O)[C@H](C)CCN2CCOCC2)N(C)C(=O)[C@@H](C(C)C)N(C)C(=O)[C@@H](CC(C)C)N(C)C(=O)[C@@H](CC(C)C)N(C)C(=O)[C@H](C)NC(=O)[C@@H](C)NC(=O)[C@@H](CC(C)C)N(C)C(=O)[C@@H](C(C)C)NC(=O)[C@H](CC(C)C)N(C)C(=O)[C@@H](OC)N(C)C1=O` [Compound B, [(3R,4R,5S)-4-Hydroxy-3-methyl-5-(methylamino)-1-N-morpholino-hexanoic acid]^1[(S)-methoxy-Sar]^3 cyclosporin A], the solubility at 18 h in series [1] (setting [3]) is above 100 µM. Further, in series [2], the inhibitory constant (Ki) was 0.008 µM.

On to `CC[C@H]1NC(=O)[C@@H]([C@H](O)[C@H](C)CCCCCN2CCOCC2)N(C)C(=O)[C@@H](C(C)C)N(C)C(=O)[C@@H](CC(C)C)N(C)C(=O)[C@@H](CC(C)C)N(C)C(=O)[C@H](C)NC(=O)[C@@H](C)NC(=O)[C@@H](CC(C)C)N(C)C(=O)[C@@H](C(C)C)NC(=O)[C@H](CC(C)C)N(C)C(=O)CN(C)C1=O` [Compound C, [(6R,7R,8S)-7-Hydroxy-6-methyl-8-(methylamino)-1-N-morpholinyl-nonanoic acid]^1 cyclosporin A], for which the solubility at 18 h in series [1] (35 mM HEPES buffer pH 7.8, aqueous buffer, kinetic from dmso stock, 35 mM HEPES pH 7.8, 1% DMSO, 18 h, read-out: Water Solubility Assay, concentration at which the compound remains in solution) was above 100 µM. For the same molecule, the inhibition constant Ki in series [2] was 0.014 µM.

On to `CC[C@H]1NC(=O)[C@@H]([C@H](O)[C@H](C)CCN2CCOCC2)N(C)C(=O)[C@@H](C(C)C)N(C)C(=O)[C@@H](CC(C)C)N(C)C(=O)[C@@H](CC(C)C)N(C)C(=O)[C@H](C)NC(=O)[C@@H](C)NC(=O)[C@@H](CC(C)C)N(C)C(=O)[C@@H](C(C)C)NC(=O)[C@H](CC(C)C)N(C)C(=O)[C@@H](COC)N(C)C1=O` [Compound D, [(3R,4R,5S)-4-Hydroxy-3-methyl-5-(methylamino)-1-N-morpholino-hexanoic acid]^1[(R)-methoxymethylene-Sar]^3 cyclosporin A], for which the solubility at 18 h in series [1] (setting [3]) lay in the range of 75 to 100 µM (≈ 97.9 to 131 µg/mL). Further, in series [2], the Ki amounted to 0.01 µM.

For `CC[C@H]1NC(=O)[C@@H]([C@H](O)[C@H](C)CCN(C)Cc2cnn(C)c2)N(C)C(=O)[C@@H](C(C)C)N(C)C(=O)[C@@H](CC(C)C)N(C)C(=O)[C@@H](CC(C)C)N(C)C(=O)[C@H](C)NC(=O)[C@@H](C)NC(=O)[C@@H](CC(C)C)N(C)C(=O)[C@@H](C(C)C)NC(=O)[C@H](CC(C)C)N(C)C(=O)[C@@H](C)N(C)C1=O` [Compound DM, [(3R,4R,5S)-4-Hydroxy-3-methyl-5-(methylamino)-1-({1-methyl-1H-pyrazol-4-ylmethyl}-methylamino)-hexanoic acid]^1[(R)-methyl-Sar]^3 cyclosporin A], the Ki in series [2] is 0.023 µM.

Consider `CC[C@H]1NC(=O)[C@@H]([C@H](O)[C@H](C)CCN(C)Cc2ccc(F)cn2)N(C)C(=O)[C@@H](C(C)C)N(C)C(=O)[C@@H](CC(C)C)N(C)C(=O)[C@@H](CC(C)C)N(C)C(=O)[C@H](C)NC(=O)[C@@H](C)NC(=O)[C@@H](CC(C)C)N(C)C(=O)[C@@H](C(C)C)NC(=O)[C@H](CC(C)C)N(C)C(=O)[C@@H](C)N(C)C1=O` [Compound DP, [(3R,4R,5S)-4-Hydroxy-3-methyl-5-(methylamino)-1-({5-fluoro-pyridin-2-ylmethyl}-methylamino)-hexanoic acid]^1[(R)-methyl-Sar]^3 cyclosporin A], for which the Ki in series [2] was found to be 0.0162 µM.

Regarding `CC[C@H]1NC(=O)[C@@H]([C@H](O)[C@H](C)CCN(C)Cc2ccc(Cl)cn2)N(C)C(=O)[C@@H](C(C)C)N(C)C(=O)[C@@H](CC(C)C)N(C)C(=O)[C@@H](CC(C)C)N(C)C(=O)[C@H](C)NC(=O)[C@@H](C)NC(=O)[C@@H](CC(C)C)N(C)C(=O)[C@@H](C(C)C)NC(=O)[C@H](CC(C)C)N(C)C(=O)[C@@H](C)N(C)C1=O` [Compound DQ, [(3R,4R,5S)-4-Hydroxy-3-methyl-5-(methylamino)-1-({5-chloro-pyridin-2-ylmethyl}-methylamino)-hexanoic acid]^1[(R)-methyl-Sar]^3 cyclosporin A], in series [2], the inhibition constant Ki worked out at 0.011 µM.

On to `CC[C@H]1NC(=O)[C@@H]([C@H](O)[C@H](C)CCN(C)Cc2ncccc2C(F)(F)F)N(C)C(=O)[C@@H](C(C)C)N(C)C(=O)[C@@H](CC(C)C)N(C)C(=O)[C@@H](CC(C)C)N(C)C(=O)[C@H](C)NC(=O)[C@@H](C)NC(=O)[C@@H](CC(C)C)N(C)C(=O)[C@@H](C(C)C)NC(=O)[C@H](CC(C)C)N(C)C(=O)[C@@H](C)N(C)C1=O` [Compound DR, [(3R,4R,5S)-4-Hydroxy-3-methyl-5-(methylamino)-1-({3-trifluoromethyl-pyridin-2-ylmethyl}-methylamino)-hexanoic acid]^1[(R)-methyl-Sar]^3 cyclosporin A], for which the Ki in series [2] was determined as 0.0084 µM.

`CC[C@H]1NC(=O)[C@@H]([C@H](O)[C@H](C)CCN2CCCCC2)N(C)C(=O)[C@@H](C(C)C)N(C)C(=O)[C@@H](CC(C)C)N(C)C(=O)[C@@H](CC(C)C)N(C)C(=O)[C@H](C)NC(=O)[C@@H](C)NC(=O)C(CC(C)C)N(C)C(=O)[C@@H](C(C)C)NC(=O)[C@H](CC(C)C)N(C)C(=O)[C@@H](C)N(C)C1=O` (stereo partly drawn) [Compound EA, [(3R,4R,5S)-4-Hydroxy-3-methyl-5-(methylamino)-1-(piperidin-1-yl)-hexanoic acid]^1[(R)-methyl-Sar]^3 cyclosporin A]: the inhibition constant Ki in series [2] came to 0.022 µM.

For the molecule `CC[C@H]1NC(=O)[C@@H]([C@H](O)[C@H](C)CCN2CCCC2)N(C)C(=O)[C@@H](C(C)C)N(C)C(=O)[C@@H](CC(C)C)N(C)C(=O)[C@@H](CC(C)C)N(C)C(=O)[C@H](C)NC(=O)[C@@H](C)NC(=O)C(CC(C)C)N(C)C(=O)[C@@H](C(C)C)NC(=O)[C@H](CC(C)C)N(C)C(=O)[C@@H](C)N(C)C1=O` (stereo partly drawn) [Compound EF, [(3R,4R,5S)-4-Hydroxy-3-methyl-5-(methylamino)-1-(pyrrolidin-1-yl)-hexanoic acid]^1[(R)-methyl-Sar]^3 cyclosporin A], the inhibition constant Ki in series [2] was found to be 0.04 µM.

Turning to `CC[C@H]1NC(=O)[C@@H]([C@H](O)[C@H](C)CCCCN(C)C)N(C)C(=O)[C@@H](C(C)C)N(C)C(=O)[C@@H](CC(C)C)N(C)C(=O)[C@@H](CC(C)C)N(C)C(=O)[C@H](C)NC(=O)[C@@H](C)NC(=O)[C@@H](CC(C)C)N(C)C(=O)[C@@H](C(C)C)NC(=O)[C@H](CC(C)C)N(C)C(=O)[C@@H](C)N(C)C1=O` [Compound KF, [(5R,6R,7S)-1-(dimethylamino)-6-hydroxy-5-methyl-7-(methylamino)-octanoic acid]^1[(R)-methyl-Sar]^3 cyclosporin A], the inhibition constant (Ki) in series [2] stood at 0.0078 µM.

With `CC[C@H]1NC(=O)[C@@H]([C@H](O)[C@H](C)CCCCN2CCOCC2)N(C)C(=O)[C@@H](C(C)C)N(C)C(=O)[C@@H](CC(C)C)N(C)C(=O)[C@@H](CC(C)C)N(C)C(=O)[C@H](C)NC(=O)[C@@H](C)NC(=O)[C@@H](CC(C)C)N(C)C(=O)[C@@H](C(C)C)NC(=O)[C@H](CC(C)C)N(C)C(=O)[C@@H](C)N(C)C1=O` [Compound KG, [(5R,6R,7S)-6-hydroxy-5-methyl-7-(methylamino)-1-(N-morpholino)-octanoic acid]^1[(R)-methyl-Sar]^3 cyclosporin A], the Ki in series [2] is 0.0038 µM.

The Ki is a dissociation constant, usually derived from enzyme kinetics or from competition with a known ligand.
